Data reported in US6638972B2, “Chroman and benzofuran derivatives as 5-hydroxytryptamine-6 ligands” (Wyeth, priority 2001, dated 2003).
Where a name gives a salt, the structure may show the parent alone. Read-outs that look alike come from different tables or passages of the source.

Experiments:
[1] = target: T1, human cloned 5-HT6 receptors (Homo sapiens, UniProt P50406); assay: 5-HT6 binding affinity ([3H]-LSD displacement, membranes of Hela cells expressing human cloned 5-HT6 receptors); details: [3H]-LSD 3.0 nM, Hela cell membranes, 120 min at room temperature
T1 construct: expressed in transfected cells; host or cells: HeLa cells (membrane preparation)
T1 sequence (P50406 whole entry): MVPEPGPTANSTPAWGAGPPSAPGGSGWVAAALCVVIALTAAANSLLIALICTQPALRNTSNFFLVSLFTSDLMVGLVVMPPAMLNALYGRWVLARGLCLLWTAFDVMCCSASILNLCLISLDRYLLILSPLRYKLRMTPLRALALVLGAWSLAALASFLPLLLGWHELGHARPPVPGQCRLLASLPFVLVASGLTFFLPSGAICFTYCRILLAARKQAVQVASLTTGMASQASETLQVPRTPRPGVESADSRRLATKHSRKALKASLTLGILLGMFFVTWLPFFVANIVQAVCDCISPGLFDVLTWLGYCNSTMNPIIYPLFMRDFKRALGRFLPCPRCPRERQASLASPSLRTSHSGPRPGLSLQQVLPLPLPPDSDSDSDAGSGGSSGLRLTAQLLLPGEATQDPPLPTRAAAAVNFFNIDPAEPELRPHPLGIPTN
Procedure: The affinity of test compounds for the serotonin 5-T6 receptor is evaluated in the following manner. Cultured Hela cells expressing human cloned 5-HT6 receptors are harvested and centrifuged at low speed (1,000×g) for 10.0 min to remove the culture media. The harvested cells are suspended in half volume of fresh physiological phosphate buffered saline solution and recentrifuged at the same speed. This operation is repeated. The collected cells are then homogenized in ten volumes of 50 mM Tris.HCl (pH 7.4) and 0.5 mM EDTA. The homogenate is centrifuged at 40,000×g for 30.0 min and the precipitate is collected. The obtained pellet is resuspended in 10 volumes of Tris.HCl buffer and recentrifuged at the same speed. The final pellet is suspended in a small volume of Tris.HCl buffer and the tissue protein content is determined in aliquots of 10-25 μl volumes. Bovine Serum Albumin is used as the standard in the protein determination according to the method described in Lowry et al., J. Biol. Chem., 193:265 (1951). The volume of the suspended cell membranes is adjusted to give a tissue protein concentration of 1.0 mg/ml of suspension. The prepared membrane suspension (10 times concentrated) is aliquoted in 1.0 ml volumes and stored at −70° C. until used in subsequent binding experiments.
Binding experiments are performed in a 96 well microtiter plate format, in a total volume of 200 μl. […] The test compounds are added in 20.0 μl volume.
The reaction is allowed to proceed in the dark for 120 min at room temperature, at which time, the bound ligand-receptor complex is filtered off on a 96 well unifilter with a Packard Filtermate® 196 Harvester. The bound complex caught on the filter disk is allowed to air dry and the radioactivity is measured in a Packard TopCount® equipped with six photomultiplier detectors, after the addition of 40.0 μl Microscint®-20 scintillant to each shallow well. The unifilter plate is heat-sealed and counted in a PackardTopCount® with a tritium efficiency of 31.0%.
Binding in the presence of varying concentrations of test compound is expressed as a percentage of specific binding in the absence of test compound. The results are plotted as log % bound versus log concentration of test compound. […] A linear regression line of data points is plotted, from which the IC50 value is determined and the Ki value is determined based upon the following equation: […]
where L is the concentration of the radioactive ligand used and KD is the dissociation constant of the ligand for the receptor, both expressed in nM.

Row | Structure (SMILES) | Ki ([1]; read-out: 5-HT6 Binding Ki) [nM] | also measured
1 | Cc1nc(COc2ccc3c(c2)OC(CNCCCO)CC3)cs1 (centres unmarked) (as salt: HCl) [Example 24, 3-{[7-(2-methyl-thiazol-4-ylmethoxy)-chroman-2-ylmethyl]-amino}-propan-1-ol] | – | melting point: 123 to 128 °C
2 | CCCCOCCCNCC1CCc2ccc(OCc3ccccc3)cc2O1 (centres unmarked) (as salt: hydrochloride) [Example 8, (7-benzyloxy-chroman-2-ylmethyl)-(3-butoxy-propyl)-amine] | – | melting point: 130 to 132 °C
3 | OCCNCC1CCc2ccc(OCc3ccccc3)cc2O1 (centres unmarked) (as salt: hydrochloride) [Example 9, 2-[(7-benzyloxy-chroman-2-ylmethyl)-amino]-ethanol] | – | melting point: 200 to 201 °C
4 | NCC1CCc2ccc(OCc3ccccc3)cc2O1 (centres unmarked) [Example 6, [(7-Benzyloxy)chroman-2-yl]methylamine Hydrochloride] | 15 | –
5 | c1ccc(CNCC2CCc3ccc(OCc4ccccc4)cc3O2)cc1 (centres unmarked) [Example 7, Benzyl-[(7-benzyloxy)chroman-2-yl]methylamine Hydrochloride] | 26 | –
6 | CCCCOCCCNCC1CCc2ccc(OCc3ccccc3)cc2O1 (centres unmarked) [Example 8, (7-benzyloxy-chroman-2-ylmethyl)-(3-butoxy-propyl)-amine] | 16 | –
7 | OCCNCC1CCc2ccc(OCc3ccccc3)cc2O1 (centres unmarked) [Example 9, 2-[(7-benzyloxy-chroman-2-ylmethyl)-amino]-ethanol] | 12 | –
8 | c1ccc(CCCNCC2CCc3ccc(OCc4ccccc4)cc3O2)cc1 (centres unmarked) [Example 10, (7-benzyloxy-chroman-2-ylmethyl)-(3-phenyl-propyl)-amine] | 44 | –
9 | c1ccc(COCCCNCC2CCc3ccc(OCc4ccccc4)cc3O2)cc1 (centres unmarked) [Example 11, (7-benzyloxy-chroman-2-ylmethyl)-(3-benzyloxy-propyl)-amine] | 27 | –
10 | CCCCNCC1CCc2ccc(OCc3ccccc3)cc2O1 (centres unmarked) [Example 12, (7-benzyloxy-chroman-2-ylmethyl)-butyl-amine] | 43 | –
11 | OCCCNCC1CCc2ccc(OCC3CCCCC3)cc2O1 (centres unmarked) [Example 13, 3-[(7-cyclohexylmethoxy-chroman-2-ylmethyl)-amino]-propan-1-ol] | 357 | –
12 | OCCCNCC1CCc2ccc(OCc3ccccc3Cl)cc2O1 (centres unmarked) [Example 14, 3-{[7-(2-chloro-benzyloxy)-chroman-2-ylmethyl]-amino}-propan-1-ol] | 38 | –
13 | OCCCNCC1CCc2ccc(Oc3ccccc3)cc2O1 (centres unmarked) [Example 15, 3-[(7-phenoxy-chroman-2-ylmethyl)-amino]-propan-1-ol] | 283 | –
14 | OCCCNCC1CCc2ccc(OCCc3ccccc3)cc2O1 (centres unmarked) [Example 22, 3-{[(7-(Phenethyloxy)chroman-2-ylmethyl]amino}propan-1-ol Hydrochloride] | 101 | –
15 | Cc1nc(COc2ccc3c(c2)OC(CNCCCO)CC3)cs1 (centres unmarked) [Example 23, 3-{[7-(2-methyl-thiazol-4-ylmethoxy)-chroman-2-ylmethyl]-amino}-propan-1-ol] | – | Ki ([1]; 5-HT6 Binding Ki): 41 nM
16 | Cc1nc(COc2ccc3c(c2)OC(CNCCCO)CC3)cs1 (centres unmarked) [Example 24, 3-{[7-(2-methyl-thiazol-4-ylmethoxy)-chroman-2-ylmethyl]-amino}-propan-1-ol] | – | Ki ([1]; 5-HT6 Binding Ki): 120 nM
17 | OCCCNCC1CCc2cc(Cl)c(OCc3ccccc3)cc2O1 (centres unmarked) [Example 29, 3-{[(7-Benzyloxy)-6-chlorochroman-2-ylmethyl]amino}propan-1-ol Fumaric Acid Salt] | 34 | –
18 | CN(CCCO)CC1CCc2ccc(OCc3ccccc3)cc2O1 (centres unmarked) [Example 30, 3-{[(7-benzyloxy)chroman-2-ylmethyl]methylamino}propan-1-ol Fumaric Acid Salt] | 27 | –
19 | OCCCNCCC1CCc2ccc(OCc3ccccc3)cc2O1 (centres unmarked) [Example 42, 3-{[2-(7-Benzyloxy)chroman-2-yl]ethylamino}propan-1-ol Hydrochloride] | 107 | –
20 | OCCNCC1Cc2ccc(OCc3ccccc3)cc2O1 (centres unmarked) [Example 51, 2-{[6-(Benzyloxy)-2,3-dihydrobenzofuran-2-ylmethyl]amino}ethanol Hydrochloride] | 386 | –
